{"source": "patent US20090170847A1", "about": "“Imidazopyridine Derivatives Inhibiting Protein Kinase Activity, Method for the Preparation Thereof and Pharmaceutical Composition Containing Same” (priority 2006, published 2009)", "format_in_all_cases": "biochemical", "key": {"[1]": {"target": "T1, p38 Mitogen-activated protein kinase (MAPK) (Homo sapiens, UniProt Q16539)", "T1 construct": "purchased Upstate", "T1 sequence (Q16539 whole entry)": "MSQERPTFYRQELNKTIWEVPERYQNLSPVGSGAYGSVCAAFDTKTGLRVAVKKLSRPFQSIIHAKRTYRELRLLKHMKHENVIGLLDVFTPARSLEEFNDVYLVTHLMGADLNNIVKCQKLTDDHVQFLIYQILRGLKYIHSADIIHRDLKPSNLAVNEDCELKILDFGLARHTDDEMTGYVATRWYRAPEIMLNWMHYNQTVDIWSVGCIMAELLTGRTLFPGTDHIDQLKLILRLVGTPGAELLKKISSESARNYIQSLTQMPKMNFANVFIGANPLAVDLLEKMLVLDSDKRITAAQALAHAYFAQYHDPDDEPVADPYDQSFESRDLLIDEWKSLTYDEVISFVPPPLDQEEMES", "assay": "p38 MAPK enzyme inhibition (histone H1, 32P-ATP)", "conditions": "p38 MAPK (recombinant p38a)", "description": "The procedure of ERK-1 analysis was repeated to assess inhibitory capacities of the test compounds for the enzyme activity, except for using 2.5 μg of histone H1 (Upstate) and 5 nM of recombinant p38a (Upstate)."}, "ERK-1": {"target": "T2, ERK-1 (Homo sapiens, UniProt P27361)", "T2 construct": "purchased Upstate", "T2 sequence (P27361 whole entry, species assumed)": "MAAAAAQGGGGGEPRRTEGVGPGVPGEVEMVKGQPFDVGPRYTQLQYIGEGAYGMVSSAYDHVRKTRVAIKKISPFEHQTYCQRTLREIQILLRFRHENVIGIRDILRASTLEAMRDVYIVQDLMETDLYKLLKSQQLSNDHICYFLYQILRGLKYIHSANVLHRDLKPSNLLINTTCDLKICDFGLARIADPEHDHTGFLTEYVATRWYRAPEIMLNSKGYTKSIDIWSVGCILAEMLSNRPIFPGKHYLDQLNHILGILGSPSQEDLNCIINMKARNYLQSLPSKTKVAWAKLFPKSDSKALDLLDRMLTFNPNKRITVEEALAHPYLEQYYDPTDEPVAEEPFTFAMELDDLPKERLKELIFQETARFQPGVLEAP", "assay": "ERK-1 enzyme inhibition (MBP, 32P-ATP)", "conditions": "ERK-1, 100 μM ATP", "method": "(§1) The test solution prepared above by dissolving a test compound in DMSO was added to the reaction solution in an amount of less than 5% based on the total reaction solution to analyze the capacity for enzyme inhibitory activity. The cpm value obtained when the test compounds was present relative to the cpm value in the absence of the test compound was represented by percentage, and IC50 (μM) was determined as the concentration of the test compound required to inhibit the enzyme activity by 50% relatively to the control solution.\n(§2) The compounds prepared in the Examples were dissolved in dimethylsulfoxide (DMSO) at a concentration of 12.5 mM to prepare test compounds and enzyme reaction was conducted in a buffer solution containing 50 mM of tris-HCl (pH 7.5), 10 mM of MgCl2, 1 mM of EGTA, 1 mM of EDTA and 1 mM of DTT. 0.33 mg/ml of MBP (Upstate), 100 μM of ATP and 0.25 μCi of ^32P-ATP were added to the buffer solution as substrates. 5 nM of recombinant Erk-1 (Upstate) was added the resulting mixture, and the mixture was reacted at 30° C. for 1 hour. The reaction was terminated by adding 5 μl of 5% phosphoric acid solution to 25 μl of the reaction mixture. 15 μl of the resulting solution was dropped on whatman p81 filter paper, which was then washed in 0.5% phosphoric acid solution for 10 mins. After repeating the washing 3 times, the filter paper was dried and cpm thereof was measured by a liquid scintillation counter (Packard, USA). Inhibitory capacities of the test compounds for the enzyme activity were assessed according to the same method as in GSK-3β analysis, and IC50 value was calculated."}, "KDR": {"target": "T3, KDR (Homo sapiens, UniProt P35968)", "T3 construct": "purchased Upstate", "T3 sequence (P35968 20-1356, species assumed)": "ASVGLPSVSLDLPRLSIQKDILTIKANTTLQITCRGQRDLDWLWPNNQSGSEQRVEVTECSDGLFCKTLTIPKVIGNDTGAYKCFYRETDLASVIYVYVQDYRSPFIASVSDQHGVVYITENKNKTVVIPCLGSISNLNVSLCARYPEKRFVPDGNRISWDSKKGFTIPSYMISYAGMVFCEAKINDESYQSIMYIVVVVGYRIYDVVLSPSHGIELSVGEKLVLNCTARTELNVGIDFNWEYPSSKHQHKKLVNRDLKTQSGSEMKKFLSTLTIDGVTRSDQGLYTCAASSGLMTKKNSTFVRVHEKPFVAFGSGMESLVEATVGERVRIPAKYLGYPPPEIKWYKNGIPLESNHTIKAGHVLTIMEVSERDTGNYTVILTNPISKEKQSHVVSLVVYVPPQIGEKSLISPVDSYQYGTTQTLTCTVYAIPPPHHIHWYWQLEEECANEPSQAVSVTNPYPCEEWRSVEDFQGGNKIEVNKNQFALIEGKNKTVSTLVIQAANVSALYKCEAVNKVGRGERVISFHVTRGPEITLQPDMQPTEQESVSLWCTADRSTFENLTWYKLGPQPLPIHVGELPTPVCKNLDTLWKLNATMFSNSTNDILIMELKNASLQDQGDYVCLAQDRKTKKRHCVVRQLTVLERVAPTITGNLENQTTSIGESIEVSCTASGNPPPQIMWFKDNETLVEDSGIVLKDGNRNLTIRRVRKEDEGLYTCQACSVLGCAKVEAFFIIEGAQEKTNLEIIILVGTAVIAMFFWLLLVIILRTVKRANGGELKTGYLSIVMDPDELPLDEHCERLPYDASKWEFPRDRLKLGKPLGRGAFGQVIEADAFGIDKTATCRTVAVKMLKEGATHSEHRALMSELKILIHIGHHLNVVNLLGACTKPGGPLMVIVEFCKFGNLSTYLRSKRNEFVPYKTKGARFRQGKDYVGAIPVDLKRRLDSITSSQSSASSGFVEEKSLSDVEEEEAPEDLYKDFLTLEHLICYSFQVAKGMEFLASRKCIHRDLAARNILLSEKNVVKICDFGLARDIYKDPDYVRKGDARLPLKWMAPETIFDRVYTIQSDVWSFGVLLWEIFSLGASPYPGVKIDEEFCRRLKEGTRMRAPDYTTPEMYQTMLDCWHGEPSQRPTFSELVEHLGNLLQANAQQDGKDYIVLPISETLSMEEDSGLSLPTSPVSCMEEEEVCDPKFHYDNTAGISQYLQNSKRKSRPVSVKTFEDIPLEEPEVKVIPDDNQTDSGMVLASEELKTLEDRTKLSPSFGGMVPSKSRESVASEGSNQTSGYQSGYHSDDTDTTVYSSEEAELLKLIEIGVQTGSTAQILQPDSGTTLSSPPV", "assay": "KDR enzyme inhibition (Biotin-polyE4Y, alphascreen)", "conditions": "0.1 μM ATP", "method": "as §1\nThe compounds prepared in the Examples were dissolved in dimethylsulfoxide (DMSO) at a concentration of 12.5 mM to prepare test solution, and enzyme reaction was conducted in a buffer solution containing 50 mM tris-HCl (pH 7.5), 5 mM MgCl2, 1 mM MnCl2, 0.01% tween-20 and 2 mM of DTT. 1 nM of Biotin-polyE4Y (Packard) and 0.1 μM of ATP were added to the buffer solution as substrates. 2 nM of recombinant KDR (Upstate) was added the resulting mixture and reaction was carried out at 30° C. for 1 hour. 10 μl of a diluted solution prepared by diluting alphascreen phosphotyrosine (T-Tyr-100, Packard) beads with a solution containing 6.25 mM of HEPES (pH 7.4), 250 mM of NaCl, 100 Mm EDTA, and 0.25% BSA was added to 15 μl of the KDR reaction solution. After a reaction at a room temperature for 1 hour, alphascreen signal was measured by a fusion a-FP (Packard). Inhibitory capacities of the test compounds for the enzyme activity were assessed according to the same method as in GSK-3β analysis, and IC50 value was calculated."}, "human GSK-3β": {"target": "human GSK-3β (Homo sapiens, UniProt P49841)", "sequence (P49841 whole entry)": "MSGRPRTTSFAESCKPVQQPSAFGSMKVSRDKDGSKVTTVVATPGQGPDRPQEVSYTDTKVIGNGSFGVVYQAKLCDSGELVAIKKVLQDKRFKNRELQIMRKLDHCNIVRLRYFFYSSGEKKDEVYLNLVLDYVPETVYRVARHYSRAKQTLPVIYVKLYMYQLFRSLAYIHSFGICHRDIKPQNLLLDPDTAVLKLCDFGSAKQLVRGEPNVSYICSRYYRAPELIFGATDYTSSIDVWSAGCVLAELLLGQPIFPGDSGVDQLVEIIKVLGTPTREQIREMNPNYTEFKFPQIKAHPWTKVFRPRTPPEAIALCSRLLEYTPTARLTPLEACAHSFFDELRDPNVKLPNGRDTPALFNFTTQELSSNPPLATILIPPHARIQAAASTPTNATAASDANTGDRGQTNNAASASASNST", "assay": "GSK-3β enzyme inhibition (32P-ATP, phospho-CREB peptide, filter paper)", "conditions": "100 μM ATP, 30° C., 1 hour", "method": "GSK-3β was prepared by a gene recombination method.\nFirst, primers corresponding to 5′-end and 3′-end of polynucleotide encoding human GSK-3β were designed and synthesized from nucleotide sequence of human GSK-3β (GenBank Reg. No. L33801). Then, the primers were amplified by PCR (polymerase chain reaction) in which a human DNA sequence was employed as a template and treated with restriction enzyme BamH1/XhoI. The resulting gene fragments were inserted into the corresponding identical restriction sites of pGex vector (GE Healthcare Life Science) to prepare an expression vector for transformation of E. coli BL21 (DE3) strain (Invitrogen). The transformed E. coli strain was inoculated to LB medium (1% Bacto tryptone, 0.5% yeast extract, 1% sodium chloride) and cultured until the optical density of the bacterial cells was about 0.5 at 600 nm and 37° C. Then, IPTG (isopropyl-β-D-thiogalactoside) was added thereto to a final concentration to 0.5 mM at 18° C. 16 hours after IPTG addition, the cells were subjected to centrifugation at 10,000×g for 10 mins and cell precipitates were collected. The cell precipitates were suspended in a buffer solution (30 mM tris-HCl (pH 7.5), 100 mM NaCl, 5% glycerol, 2 mM DTT) and the cells were smashed in an ice bath using a Sonic Dismembrator (Fisher, USA). The resulting solution was centrifuged at 16,000 rpm for 30 mins.\nThe supernatant obtained above was introduced to a pre-equilibrated GST column (Pharmacia, USA) and eluted by 5 mM glutachione. The effuent was subjected to SDS-PAGE and GSK-3β protein was collected. GST protein was cutt using thrombin. The GSK-3β protein thus obtained was diluted with a buffer solution (20 mM HEPES (pH 7.5), 5% glycerol, 2 mM DTT) until the concentration of NaCl reached 50 mM. The diluted solution was introduced to Mono S column (Pharmacia, USA) equilibrated with the above buffer solution and eluted with a aqueous NaCl while changing the concentration from 0 to 1 M NaCl, and GSK-3β protein was collected by a electrophoresis. The purified protein was used in the analysis for the activity for enzyme activity.\nThe enzyme reaction was conducted in a buffer solution (50 mM of tris-HCl (pH 7.5), 10 mM of MgCl2, 1 mM of EGTA, 1 mM of EDTA and 1 mM of DTT). 100 μM of phosho-CREB peptide (NEB, USA), 100 μM of ATP and 1 μCi of ^32P-ATP were added to the buffer solution as substrates. And then 100 nM of recombinant GSK-3β was added thereto and the mixture was reacted at 30° C. for 1 hour. The reaction was terminated by the addition of 5 μl of 5% phosphoric acid solution to 25 μl of the reaction mixture. The resulting solution was subjected to centrifugation at 15,000 for 10 mins and 20 μl of the supernatant thus obtained was dropped on whatman p81 filter paper. The filter paper was washed in 0.5% phosphoric acid solution for 10 mins. After repeating the washing 3 times, the filter paper was dried and its cpm (counter per mins) was assessed.\nThe test solution prepared above by dissolving a test compound in DMSO was added to the reaction solution in an amount of less than 5% based on the total reaction solution to analyze the capacity for enzyme inhibitory activity."}, "JNK-1": {"target": "T4, JNK-1 (Homo sapiens, UniProt P45983)", "T4 construct": "purchased Upstate", "T4 sequence (P45983 whole entry, species assumed)": "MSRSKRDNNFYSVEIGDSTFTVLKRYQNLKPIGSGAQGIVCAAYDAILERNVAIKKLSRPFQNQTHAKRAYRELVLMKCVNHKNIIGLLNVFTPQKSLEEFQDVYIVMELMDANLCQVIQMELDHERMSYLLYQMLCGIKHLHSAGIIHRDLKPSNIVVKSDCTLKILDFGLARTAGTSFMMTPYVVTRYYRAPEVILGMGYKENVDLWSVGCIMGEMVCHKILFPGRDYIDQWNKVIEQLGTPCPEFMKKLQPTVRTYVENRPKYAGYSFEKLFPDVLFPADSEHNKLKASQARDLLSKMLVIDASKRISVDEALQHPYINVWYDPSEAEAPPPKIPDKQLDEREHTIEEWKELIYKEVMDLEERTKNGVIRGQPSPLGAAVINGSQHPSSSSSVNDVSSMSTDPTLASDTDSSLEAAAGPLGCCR", "assay": "JNK-1 enzyme inhibition (GST-ATF2, 32P-ATP)"}, "CDK-2/cycline A": {"target": "T5, CDK-2/cycline A (Homo sapiens, UniProt P24941)", "T5 construct": "purchased Upstate", "assay": "CDK-2 enzyme inhibition (histone H1, 32P-ATP)", "method": "as §2, with “0.33” for “The compounds prepared in the Examples were dissolved in dimethylsulfoxide (DMSO) at a concentration of 12.5 mM to prepare test compounds and enzyme reaction was conducted in a buffer solution containing 50 mM of tris-HCl (pH 7.5), 10 mM of MgCl2, 1 mM of EGTA, 1 mM of EDTA and 1 mM of DTT. 0.33”\nThe procedure of ERK-1 analysis was repeated to assess inhibitory capacities of the test compounds for the enzyme activity, except for using 2.5 μg of histone H1 (Upstate) and 100 nM of recombinant CDK-2/cycline A (Upstate)."}}, "data": [{"smiles": "CCSc1ccncc1NC(=O)c1ccnc2[nH]c(-c3ccc(F)cc3)nc12", "note": "[Example 320, 2-(4-fluoro-phenyl)-3H-imidazo[4,5-b]pyridine-7-carboxylic acid(4-ethylsulfanyl-pyridin-3-yl)-amide]", "values": [{"measurement": "IC50", "setting": "[1]", "value": 50, "unit": "µM"}, {"measurement": "IC50", "setting": "ERK-1", "value": 25.5, "unit": "µM"}, {"measurement": "IC50", "setting": "KDR", "value": 0.29, "unit": "µM"}, {"measurement": "IC50", "setting": "human GSK-3β", "value": 0.005, "unit": "µM"}, {"measurement": "IC50", "setting": "JNK-1", "value": 14.5, "unit": "µM"}, {"measurement": "IC50", "setting": "CDK-2/cycline A", "value": 0.17, "unit": "µM"}]}]}
